Data set [1] can be described thus: DSC thermal analysis (thermal decomposition). It is filed as physicochemical. The conditions noted are these: DSC trace, heating ramp 10° C./min. Here is the method: DSC was performed using a TA Instruments Model Q-10 module with a Thermal Analyst controller, and data were collected and analyzed using TA Instruments Thermal Solutions software. A sample of about 1 mg of the crystalline diacetate salt was accurately weighed into an aluminum pan with lid, and evaluated using a linear heating ramp of 10° C./min from ambient temperature to approximately 300° C. The DSC cell was purged with dry nitrogen during use. A representative DSC trace for this salt is shown in FIG. 2 and depicts one transition at about 114° C., no thermal decomposition below about 160° C., and maximum endothermic heat flow at about 112° C.

Data set [2] can be described thus: Dynamic moisture sorption (DMS) assessment. It is filed as physicochemical. The method, then: A dynamic moisture sorption (DMS) assessment (also known as a moisture sorption-desorption profile) was performed for samples of the crystalline diacetate salt using a VTI atmospheric microbalance, SGA-100 system (VTI Corp., Hialeah, Fla. 33016). A sample size of approximately 10 mg was used and the humidity was set at the ambient value at the start of the analysis. A typical DMS analysis consisted of three scans: ambient to 2% relative humidity (RH), 2% RH to 90% RH, 90% RH to 5% RH at a scan rate of 5% RH/step. The mass was measured every two minutes and the RH was changed to the next value (+/−5% RH) when the mass of the sample was stable to within 0.01% for 5 consecutive points.

Structures can show the parent of a compound that is named as a salt.

As to `CN(CCN1CCC(OC(=O)Nc2ccccc2-c2ccccc2)CC1)C(=O)c1cccc(C(=O)NCCNCc2ccc(O)cc2)c1` [crystalline diacetate salt, biphenyl-2-ylcarbamic acid 1-[2-({3-[2-(4-hydroxybenzylamino)ethylcarbamoyl]benzoyl}methylamino)ethyl]piperidin-4-yl ester], the “no thermal decomposition below (DSC)” value in data set [1] was at least 160 °C. In addition, the “weight gain when exposed to up to 90% RH (DMS, reversible sorption/desorption profile)” value in data set [2] is given as “less than 18%”.

As for `CN(CCN1CCC(OC(=O)Nc2ccccc2-c2ccccc2)CC1)C(=O)c1cccc(C(=O)NCCNCc2ccc(O)cc2)c1` [crystalline dipropionate salt, Biphenyl-2-ylcarbamic Acid 1-[2-({3-[2-(4-Hydroxybenzylamino)ethylcarbamoyl]benzoyl}methylamino)ethyl]piperidin-4-yl Ester], the “no thermal decomposition below (DSC)” value in data set [1] was at least 150 °C. The “weight gain when exposed to up to 90% RH (DMS, reversible sorption/desorption profile)” value in data set [2] is on record as “less than 11%”.

Regarding `CN(CCN1CCC(OC(=O)Nc2ccccc2-c2ccccc2)CC1)C(=O)c1cccc(C(=O)NCCNCc2ccc(O)cc2)c1` [crystalline monooxalate salt, Biphenyl-2-ylcarbamic Acid 1-[2-({3-[2-(4-Hydroxybenzylamino)ethylcarbamoyl]benzoyl}methylamino)ethyl]piperidin-4-yl Ester], the “no thermal decomposition below (DSC)” value in data set [1] is at least 150 °C. In data set [2], the “weight gain when exposed to up to 90% RH (DMS, reversible sorption/desorption profile)” value is on record as “less than 14%”.

The record behind these values is patent US8487107B2, “Biphenyl compounds useful as muscarinic receptor antagonists” (Theravance, Inc., priority 2005, dated 2013).
